Measurements as given in PMC12564498, “Benzo[d]imidazole–Naphthalen-Arylmethanone Regioisomers as CB1 Ligands: Evaluation of Agonism via an Indirect Cytotoxicity-Based Approach” (International Journal of Molecular Sciences, 2025).
Several values for one entry are separate records, joined by “and”; a condition that tells them apart may be missing. Equal values may be shown once. Read-outs that look alike come from different tables or passages of the source.

Assays:
[1] = molecular target: T1, human recombinant cannabinoid CB2 receptor (Homo sapiens, UniProt P34972); test: CB2 radioligand displacement binding assay ([3H]CP-55940); conditions: for inhibition at 10 µM: displacement of [3H]CP-55940 at 10 μM compound, read-out: CB2 Max Tested µM (% Displacement); for Ki: Cheng–Prusoff from IC50, [3H]CP-55940 0.5 nM; for Ki / IC50: mean ± SEM n = 3; for IC50: [3H]CP-55940 0.5 nM, hCB2 HEK293-EBNA membranes
T1 construct: purchased Perkin Elmer Inc., Singapore Pte; Ltd. RBXCB2M400UA; host or cells: HEK293-EBNA cell membranes (overexpressing)

[2] = molecular target: T2, human cannabinoid CB1 receptor (Homo sapiens, UniProt P21554); test: biochemical; format: binding; conditions: for inhibition at 10 µM: displacement of [3H]CP-55940 at 10 μM compound, read-out: CB1 Max Tested µM (% Displacement)
T2 construct: purchased Perkin Elmer Inc., Singapore Pte; Ltd. RBHCB1M400UA; host or cells: HEK293-EBNA cell membranes (overexpressing)

[3] = system: U87MG cells; test: cells; conditions: for cytotoxicity at 0.1 µM: read-out: % Toxicity U87MG, 0.1 μM, 72 h, MTT, n = 3
Description: (§1) HEK293, U87MG, and HL-60 cell lines were seeded in a flat-bottom 96-well plate at a density of 10,000 cells per well. […] All compounds were incubated at 0.1 μM in 200 μL of culture medium supplemented with 10% FBS, in a flat-bottom 96-well plate at a density of 10,000 cells per well, at 37 °C for 72 h. Next, 20 μL of a 5 mg/mL MTT solution was added, and the cells were incubated at 37 °C for 4 h. Then, they were solubilized with 10% sodium dodecyl sulfate (SDS) in 0.1 mM HCl and incubated overnight at 37 °C. Formazan absorbance of each well was measured using the EPOCH microplate reader (Biotek, Winooski, VT, USA) at a wavelength of 570 nm. […]
(§2) promyelocytic leukemia cells (HL-60) were maintained at 5% CO2 and 37 °C in DMEM, EMEM and RPMI medium, respectively containing 10% Fetal Bovine Serum and 100 U/mL penicillin and 100 […]
(§3) Cell viability: ([MTT - (3-(4,5-dimethylthiazol-2-yl)-2,5-diphenyltetrazolium bromide) - formazan] HEK293, U87MG, and HL-60 cells were first quantified to determine the exact number to be used in […]
(§4) with the Beer-Lambert(1).
(§5) HEK293, U87MG and HL-60 cell lines were seed in a flat-bottom 96-wells plate at a density of 10,000 […]
(§6) concentrations (0.001 μM to 10 μM) in 200 μL of respective culture medium supplemented with 10% fetal bovine serum (FBS), at 37 °C for 72 hours. Subsequently, 20 μL of 5 mg/mL MTT solution was added to each well, and cells were incubated at 37 °C for 4 h. The resulting formazan crystals were then solubilized with 10% sodium dodecyl sulfate (SDS) in 0.1 mM HCl, followed by overnight incubation at 37 °C. Untreated cells were used as the control, 0.1% of dimethyl sulfoxide (DMSO) as the vehicle control, and 0.2 % of Triton X-100 as a positive control for cell death. IC 50 toxicity values […]
(§7) same conditions described in the previous paragraph. […]
(§8) determined IC50. The stimulation with both CB ligands was performed simultaneously.
(§9) All compounds were incubated at 0.1 μM in 200 μL of culture medium supplemented with 10% FBS, in a flat-bottom 96-well plate at a density of 10,000 cells per well, at 37°C for 72 hours. Next, 20 μL of a 5 mg/mL MTT solution was added, and the cells were incubated at 37°C for 4 hours. Then, they were solubilized with 10% sodium dodecyl sulfate (SDS) in 0.1 mM HCl and incubated overnight at 37°C. Formazan absorbance of each well was measured using the EPOCH microplate reader (Biotek, USA) at a wavelength of 570 nm.
(§10) [1]Mosorov, V., The Lambert-Beer law in time domain form and its application.

[4] = system: HEK293 cells; test: cells; conditions: for % Toxicity HEK293T: 0.1 μM, 72 h, MTT, n = 3; for cytotoxicity at 0.1 µM: Homo sapiens, HEK293, 72 h, read-out: % Toxicity HEK293T, 0.1 μM, 72 h, MTT, n = 3
Description: as §1, §2, §3, §4, §5, §6, §7, §8, §9, §10

[5] = system: HL-60 cells; test: cells; conditions: for % Toxicity HL-60: 0.1 μM, 72 h, MTT, n = 3
Description: as §1, §2, §3, §4, §5, §6, §7, §8, §9, §10

[6] = Cheng–Prusoff from IC50, [3H]CP-55940 0.5 nM, mean ± SEM n = 3, read-out: CB1 Ki
[7] = [3H]CP-55940 0.5 nM, hCB1 HEK293-EBNA membranes, mean ± SEM n = 3, read-out: CB1 IC50

T1 sequence (P34972 whole entry): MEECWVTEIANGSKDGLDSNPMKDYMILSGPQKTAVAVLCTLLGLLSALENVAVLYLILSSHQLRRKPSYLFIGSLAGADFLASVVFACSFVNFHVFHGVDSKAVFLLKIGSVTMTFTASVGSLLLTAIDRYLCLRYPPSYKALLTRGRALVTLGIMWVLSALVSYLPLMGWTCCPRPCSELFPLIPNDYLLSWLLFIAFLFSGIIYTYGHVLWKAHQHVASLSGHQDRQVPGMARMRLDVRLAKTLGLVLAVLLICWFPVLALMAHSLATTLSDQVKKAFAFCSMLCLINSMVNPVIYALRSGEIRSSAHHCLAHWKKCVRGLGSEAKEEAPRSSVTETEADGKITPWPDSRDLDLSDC
T2 sequence (P21554 whole entry): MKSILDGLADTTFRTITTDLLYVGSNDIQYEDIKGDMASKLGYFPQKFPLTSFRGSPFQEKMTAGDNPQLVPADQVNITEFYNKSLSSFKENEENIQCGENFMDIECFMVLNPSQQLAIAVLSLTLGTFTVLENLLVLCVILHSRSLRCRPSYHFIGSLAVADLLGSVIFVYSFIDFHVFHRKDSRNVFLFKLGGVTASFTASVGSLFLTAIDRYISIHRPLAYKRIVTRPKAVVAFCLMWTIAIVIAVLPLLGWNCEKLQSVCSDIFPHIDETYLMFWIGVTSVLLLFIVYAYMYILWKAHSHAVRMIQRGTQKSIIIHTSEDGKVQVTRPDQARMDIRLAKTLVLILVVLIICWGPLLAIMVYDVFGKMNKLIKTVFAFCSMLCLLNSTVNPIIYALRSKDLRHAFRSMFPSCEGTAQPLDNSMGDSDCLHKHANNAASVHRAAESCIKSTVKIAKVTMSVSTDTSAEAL

SMILES	inhibition at 10 µM [1] [%]	Ki [2, 6]	IC50 [2, 7] [µM]	inhibition at 10 µM [2] [%]	Ki [1] [µM]	IC50 [1] [µM]	IC50 [2] [µM]	Ki ([2]; CB1 Ki) [µM]	% Toxicity U87MG ([3]; 0.1 μM, 72 h, MTT, n = 3) [%]	cytotoxicity at 0.1 µM ([3]; Homo sapiens, U-87 MG, 72 h) [%]	% Toxicity HEK293T [4] [%]	cytotoxicity at 0.1 µM [4] [%]	% Toxicity HL-60 [5]	cytotoxicity at 0.1 µM ([5]; Homo sapiens, HL-60, 72 h, read-out: % Toxicity HL-60) [%]	IC50 U87MG cells as printed in the figure picture ([3]; MTT dose–response curve, unit not given)	IC50 ([3]; Homo sapiens, U-87 MG, 72 h, read-out: IC50 toxicity U87MG, MTT, 72 h) [µM]
O=C(c1cccc2ccccc12)n1c(-c2cccnc2)nc2ccc(Cl)cc21 [4a′]	52	> 10 µM	> 10	20	–	–	–	–	–	–	–	–	–	–	–	–
Cc1cc(-c2nc3ccc(Cl)cc3n2C(=O)c2cccc3ccccc23)no1 [4c′]	29	> 10 µM	> 10	44	> 10	> 10	–	–	–	–	–	–	–	–	–	–
O=C(c1cccc2ccccc12)n1c(-c2ccon2)nc2ccc(Cl)cc21 [4d′]	42	–	–	47	> 10	> 10	> 10	> 10	–	–	–	–	–	–	–	–
Cc1ccc(-c2nc3ccc(Cl)cc3n2C(=O)c2cccc3ccccc23)o1 [4e′]	52.8	> 10 µM	> 10	38	> 10	> 10	–	–	–	–	–	–	–	–	–	–
O=C(c1cccc2ccccc12)n1c(-c2cccnc2)nc2ccc(F)cc21 [5a′, (6-fluoro-2-(pyridin-3-yl)-1H-benzo[d]imidazol-1-yl)(naphthalen-1-yl)methanone]	16	> 10 µM	> 10	9.5	> 10	> 10	–	–	–	–	–	–	–	–	–	–
COc1cccc(-c2nc3ccc(F)cc3n2C(=O)c2cccc3ccccc23)c1 [5b′, (6-fluoro-2-(3-methoxyphenyl)-1H-benzo[d]imidazol-1-yl)(naphthalen-1-yl)methanone]	53.5	> 10 µM	> 10	47	> 10	> 10	–	–	–	–	–	–	–	–	–	–
Cc1cc(-c2nc3ccc(F)cc3n2C(=O)c2cccc3ccccc23)no1 [5c′, (6-fluoro-2-(5-methylisoxazol-3-yl)-1H-benzo[d]imidazol-1-yl)(naphthalen-1-yl)methanone]	29	> 10 µM	> 10	37	> 10	> 10	–	–	–	–	–	–	–	–	–	–
O=C(c1cccc2ccccc12)n1c(-c2ccon2)nc2ccc(F)cc21 [5d′, (6-fluoro-2-(isoxazol-3-yl)-1H-benzo[d]imidazol-1-yl)(naphthalen-1-yl)methanone]	26	> 10 µM	> 10	34	> 10	> 10	–	–	–	–	–	–	–	–	–	–
Cc1ccc(-c2nc3ccc(F)cc3n2C(=O)c2cccc3ccccc23)o1 [5e′, (6-fluoro-2-(5-methylfuran-2-yl)-1H-benzo[d]imidazol-1-yl)(naphthalen-1-yl)methanone]	52	> 10 µM	> 10	43	> 10	> 10	–	–	–	–	–	–	–	–	–	–
O=C(c1cccc2ccccc12)n1c(-c2cccnc2)nc2cc(Cl)ccc21 [Compound 4a]	35	> 10 µM	> 10	36	6.6	–	–	–	–	–	–	–	–	–	–	–
COc1cccc(-c2nc3cc(Cl)ccc3n2C(=O)c2cccc3ccccc23)c1 [Compound 4b]	48	> 10 µM	> 10	39	> 10	> 10	–	–	–	–	–	–	–	–	–	–
Cc1cc(-c2nc3cc(Cl)ccc3n2C(=O)c2cccc3ccccc23)no1 [Compound 4c]	30	> 10 µM	> 10	38	> 10	> 10	–	–	–	–	–	–	–	–	–	–
O=C(c1cccc2ccccc12)n1c(-c2ccon2)nc2cc(Cl)ccc21 [Compound 4d]	15	~1.86 µM and 1.86 µM	7.58 ± 4.21	> 55	> 10	> 10	–	–	50 ± 14	50	10 ± 9	10	–	–	–	–
Cc1ccc(-c2nc3cc(Cl)ccc3n2C(=O)c2cccc3ccccc23)o1 [Compound 4e]	29	> 10 µM	> 10	30	> 10	> 10	–	–	–	–	–	–	–	–	–	–
O=C(c1cccc2ccccc12)n1c(-c2ccco2)nc2cc(Cl)ccc21 [Compound 4f]	46.5	> 10 µM	> 10	> 50	> 10	> 10	–	–	–	–	–	–	–	–	–	–
O=C(c1cccc2ccccc12)n1c(-c2ccco2)nc2ccc(Cl)cc21 [Compound 4f′]	53.2	> 10 µM	> 10	47.5	> 10	> 10	–	–	–	–	50 ± 23	50	10 ± 19%	10	–	–
O=C(c1cccc2ccccc12)n1c(-c2cccnc2)nc2cc(F)ccc21 [Compound 5a]	43	> 10 µM	> 10	41	> 10	> 10	–	–	–	–	–	–	–	–	–	–
Cc1cc(-c2nc3cc(F)ccc3n2C(=O)c2cccc3ccccc23)no1 [Compound 5c, (5-fluoro-2-(5-methylisoxazol-3-yl)-1H-benzo[d]imidazol-1-yl)(naphthalen-1-yl)methanone]	24	> 10 µM	> 10	54.5	> 10	> 10	–	–	–	–	–	–	–	–	–	–
O=C(c1cccc2ccccc12)n1c(-c2ccon2)nc2cc(F)ccc21 [Compound 5d, (5-fluoro-2-(isoxazol-3-yl)-1H-benzo[d]imidazol-1-yl)(naphthalen-1-yl)methanone]	51	> 10 µM	> 10	54	> 10	> 10	–	–	–	–	–	–	–	–	–	–
O=C(c1cccc2ccccc12)n1c(-c2ccco2)nc2cc(F)ccc21 [Compound 5f, (5-fluoro-2-(furan-2-yl)-1H-benzo[d]imidazol-1-yl)(naphthalen-1-yl)methanone]	54.5	~1.48 µM and 1.48 µM	6.03 ± 4.09	> 55	> 10	> 10	–	–	–	–	–	–	–	–	8.963 x 10^-8	–
O=C(c1cccc2ccccc12)n1c(-c2ccco2)nc2ccc(F)cc21 [Compound 5f′, (6-fluoro-2-(furan-2-yl)-1H-benzo[d]imidazol-1-yl)(naphthalen-1-yl)methanone]	47	~2.12 µM and 2.12 µM	8.65 ± 3.11	> 55	> 10	> 10	–	–	–	66	–	–	does not show any toxicity	–	–	0.089
